# According to patent US20140256830A1, “RESORCINOL COMPOUNDS FOR DERMATOLOGICAL USE” (Ampere Life Sciences, Inc., priority 2013, published 2014):
# Test system: mushroom tyrosinase (Sigma T3824)
# Assay: Mushroom Tyrosinase Inhibition Assay
# Type: biochemical
# Details: 10 μM compound, 300 μM L-Tyrosine, 84 units/mL enzyme, pH 6.5, 15 min room temperature
# Method: 10 μM compound, 300 μM L-Tyrosine, and 84 units/mL of mushroom tyrosinase (Sigma T3824) were combined into 0.05 M potassium monophosphate buffer at pH=6.5, and incubated for 15 min at room temperature. Absorbance was recorded at 490 nm. % tyrosinase inhibition was calculated as follows: (AbsDMSO−Abscmpd)/AbsDMSO×100. The assay was performed for various compounds described herein, as well as for control compounds 4-ethyl resorcinol (4ER), 4-isopropylresorcinol (4IPR), 4-hexylresorcinol (4HR), 4-cyclohexylresorcinol (4CHR), 5-methylresorcinol (5MR), kojic acid (KA), and hydroquinone (HQ), structures of which are shown below.
row,SMILES,Mushroom Tyrosinase (% remaining enzyme activity) % TYR Activity [%]
1,"Cc1cc(O)cc(O)c1Cc1ccccc1 [4,5BnMR, 4-benzyl-5-methylbenzene-1,3-diol]",97
2,"Oc1cc(O)c(Cc2ccccc2)c(C(F)(F)F)c1 [4,5BnTFMR, 2-Benzyl-1,5-dihydroxy-3-trifluoromethyl-benzene]",93
3,"Oc1cc(O)c(C2CCCCC2)c(F)c1 [4,5CHFR, 4-cyclohexyl-5-fluorobenzene-1,3-diol]",1
4,"Cc1cc(O)cc(O)c1C1CCCCC1 [4,5CHMR, 4-cyclohexyl-5-methylbenzene-1,3-diol]",22
5,"Oc1cc(O)c(C2CCCCC2)c(C(F)(F)F)c1 [4,5CHTFMR]",100
6,"Cc1cc(O)cc(O)c1C1CCCC1 [4,5CPMR, 4-cyclopentyl-5-methylbenzene-1,3-diol]",71
7,"Cc1cc(O)cc(O)c1C1CC1 [4,5CPrMR, 4-cyclopropyl-5-methylbenzene-1,3-diol]",30
8,"Oc1cc(O)c(C2CCCCC2)c(F)c1 [4,5EFR, 4-cyclohexyl-5-fluorobenzene-1,3-diol]",3
9,"CCc1c(C)cc(O)cc1O [4,5EMR, 4-ethyl-5-methylbenzene-1,3-diol]",93
10,"CCc1c(O)cc(O)cc1C(F)(F)F [4,5ETFMR, 2-Ethyl-1,5-dihydroxy-3-trifluoromethyl-benzene]",102
11,"CCCCCCc1c(C)cc(O)cc1O [4,5HMR, 4-hexyl-5-methylbenzene-1,3-diol]",10
12,"Cc1cc(O)cc(O)c1C(C)C [4,5IPMR, 4-isopropyl-5-methylbenzene-1,3-diol]",108
13,"Cc1cc(O)cc(O)c1CC1CCCC1 [4,5MCPMR, 4-cyclopentylmethyl-5-methylbenzene-1,3-diol]",32
14,"Cc1cc(O)cc(O)c1C(C)c1ccccc1 (stereo not drawn) [4,5PEMR, 4-(1-phenylethyl)-5-methylbenzene-1,3-diol]",105
15,"Cc1cc(O)cc(O)c1CC(F)(F)F [4,5TFEMR, 4-(2,2,2-trifluoroethyl)-5-methylbenzene-1,3-diol]",103
16,"CCC(C)c1c(C)cc(O)cc1O (stereo not drawn) [4,5sBMR, 4-sec-butyl-5-methylbenzene-1,3-diol]",100
17,"Oc1ccc(C2CCCCC2)c(O)c1 [Compound 4CHR, 4-cyclohexylresorcinol, reference compound]",0
18,"CCc1ccc(O)cc1O [Compound 4ER, 4-ethyl resorcinol, reference compound]",2
19,"CCCCCCc1ccc(O)cc1O [Compound 4HR, 4-hexylresorcinol, reference compound]",1
20,"CC(C)c1ccc(O)cc1O [Compound 4IPR, 4-isopropylresorcinol, reference compound]",1
21,"Cc1cc(O)cc(O)c1 [Compound 5MR, 5-methylresorcinol, reference compound]",100
22,"Oc1ccc(O)cc1 [Hydroquinone, hydroquinone, reference compound]",100
23,"O=c1cc(CO)occ1O [Kojic Acid, kojic acid, reference compound]",84

# Test system: human neonatal epidermal melanocytes (HEMn-DP) / HaCaT cells co-culture
# Assay: Melanocyte-HaCaT Co-Culture Assay
# Type: cell-based
# Details: 10 μM concentration, 72 h, corrected for viability (Calcein-AM)
# Method: Darkly pigmented human neonatal epidermal melanocytes (HEMn-DP, Invitrogen) were grown in Medium 254 with HMGS-2 supplement and P/S at 37° C. and 5% CO2. HaCaT cells were grown in DMEM, 10% FBS, P/S at 37° C., 5% CO2. Co-culture was conducted in 50% melanocyte media+50% keratinocyte media (EpiLife with EDGS, P/S). Cells were plated in the co-culture media at 40K (HaCaT) and 30K (HEMn-DP) per well in a 24-well plate. After 24 h of incubation at 37° C. and 5% CO2, media was changed to M153 (MCDB153 Sigma M7403 with NaHCO3 pH to 7.1, 2 mM Tyrosine, 10 nM NDP-aMSH, 3 ng/mL bFGF, 2.8 ug/mL Hydrocortisone, 10 ug/mL Insulin, 10 ug/mL Transferrin, and P/S), treated with compound, and incubated for 72 h at 37° C. and 5% CO2. After measuring cellular viability with Calcein-AM (RFU Ex/Em=488/525 nm), cells were lysed at 1 h at 65° C. with 1N NaOH+10% DMSO. Absorbance of cleared lysate was measured at 405 nm and 660 nm. % melanin was calculated as follows: ((Abs405DMSO−Abs660DMSO)/CalceinDMSO)−(Abs405comp−Abs660comp)/Calceincomp))/(Abs405DMSO−Abs660DMSO)/CalceinDMSO×100. At 10 μM concentration, % cellular melanin was 42% in the presence of compound 4,5CHMR.
row,SMILES,% cellular melanin [%]
1,"Cc1cc(O)cc(O)c1C1CCCCC1 [4,5CHMR, 4-cyclohexyl-5-methylbenzene-1,3-diol]",42
